Reference: US8119681B2, “2-[1-phenyl-5-hydroxy or methoxy-4alpha-methyl-hexahydrocyclopenta [ƒ]indazole-5-YL]ethyl phenyl derivatives as glucocorticoid receptor ligands” (Merck Sharp & Dohme Corp., priority 2006, dated 2012)

What was measured:
human GR [1] = target: T1, human GR (Homo sapiens, UniProt P04150); assay: Trans-Activation Modulation of Glucocorticoid Receptor (GRAMMER), MMTV-LUC reporter gene; format: cell-based; parameters: endogenous in cells; conditions: for Emax: A549; for EC50: A549 cells, IP = inflection point
T1 sequence (P04150 1-777): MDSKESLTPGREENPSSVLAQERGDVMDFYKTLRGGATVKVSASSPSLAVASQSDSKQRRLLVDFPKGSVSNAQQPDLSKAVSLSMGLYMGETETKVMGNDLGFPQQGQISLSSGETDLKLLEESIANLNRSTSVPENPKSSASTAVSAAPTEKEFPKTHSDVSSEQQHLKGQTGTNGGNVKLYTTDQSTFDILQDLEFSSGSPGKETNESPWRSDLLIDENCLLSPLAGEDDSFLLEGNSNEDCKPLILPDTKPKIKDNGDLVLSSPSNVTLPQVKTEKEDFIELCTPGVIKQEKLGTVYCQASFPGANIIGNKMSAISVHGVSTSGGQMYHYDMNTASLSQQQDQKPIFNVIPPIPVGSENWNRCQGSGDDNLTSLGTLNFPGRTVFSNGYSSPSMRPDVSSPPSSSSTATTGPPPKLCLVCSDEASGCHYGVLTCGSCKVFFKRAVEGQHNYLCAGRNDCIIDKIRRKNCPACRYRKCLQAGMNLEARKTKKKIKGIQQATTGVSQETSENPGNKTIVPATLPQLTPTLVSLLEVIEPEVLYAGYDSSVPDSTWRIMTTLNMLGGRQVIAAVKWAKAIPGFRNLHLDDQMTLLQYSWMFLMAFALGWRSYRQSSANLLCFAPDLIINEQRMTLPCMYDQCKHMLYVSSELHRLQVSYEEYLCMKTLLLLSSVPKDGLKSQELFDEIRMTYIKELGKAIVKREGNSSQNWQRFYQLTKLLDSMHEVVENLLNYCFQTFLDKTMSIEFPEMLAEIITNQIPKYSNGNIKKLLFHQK
Source text: Trans-Activation Modulation of Glucocorticoid Receptor (GRAMMER)
This assay assesses the ability of test compounds to control transcription from the MMTV-LUC reporter gene in lung adenocarcinoma A549 cells or HeLa cells, a human […] cell line that naturally expresses the human GR. The assay measures induction of a modified MMTV LTR/promoter linked to the LUC reporter gene.
The routine transient assay consists of plating 7,000-25,000 cells/well of a white, clear-bottom 96-well plate. Alternatively, 384-well plates can be used at a cell concentration of 10,000/well. The media that the cells are plated in is “exponential growth medium” which consists of phenol red-free RPMI1640 containing 10% FBS, 4 mM L-glutamine, 20 mM HEPES, 10 ug/mL human insulin, and 20 ug/mL gentamicin. Incubator conditions are 37° C. and 5% CO2. The transfection is done in batch mode. The cells are trypsinized and counted to the right cell number in the proper amount of fresh media. It is then gently mixed with the FuGene6/DNA mix and plated onto the 96 or 384-well plate, all the wells receive 100 uL or 40 uL, respectively, of medium+lipid/DNA complex then incubated 37° C. overnight. The transfection cocktail consists of serum-free OptiMEM, FuGene6 reagent and DNA. The manufacturer's (Roche Biochemical) protocol for cocktail setup is as follows: The lipid to DNA ratio is approximately 2.5:1 and the incubation time is 20 min at room temperature. Sixteen to 24 hours after transfection, the cells are treated with dexamethasone to a final concentration of 10 nM as well as the compound of interest, such that final DMSO (vehicle) concentration is equal to or less than 1%. Each plate also contains samples that are treated with 10 nM dexamethasone alone, which is used as the 100% activity control. The cells are exposed to the compounds for 24 hours. After 24 hours, the cells are lysed by a Promega cell culture lysis buffer for approximately 30 min and then the luciferase activity in the extracts is assayed in the 96-well format luminometer. In 384-well format, Steady-Glo (Promega) or Steady-Lite (PerkinElmer) can be used by adding an equal volume of reagent to the media present in each well. Activity induced by 10 nM dexamethasone alone is set at 100% activity. Antagonist activity is calculated by determining the decrease in dexamethasone-induced activity in response to compound treatment relative to samples that were treated with dexamethasone alone. […] This transactivation assay can be performed in an agonist and antagonist mode to identify these different activities. […]

human GR [2] = target: T1, human GR; assay: Transrepression Assay (GITAR), TNFα-β-lactamase reporter gene in U937 cells; format: cell-based; parameters: U937 cells contain an endogenous glucocorticoid receptor (GR); endogenous in cells; host or cells: U937 cells stably transfected with the TNF-α promoter/β-lactamase reporter only; conditions: for EC50: IP = inflection point; for GITAR > GRAMM % SEP: separation of GITAR Emax over GRAMMER Emax; for Emax: U-937
Procedure, shortened: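 Reporter readout used CCF2-AM loading for 70–90 min at room temperature after overnight (~18 h, 37 °C) PMA (5 ng/ml final) and LPS (100 ng/ml final) stimulation of compound-treated (30–45 min) TNFα-β-lactamase U937 cells expressing native GR. Activity was normalised to 100 nM dexamethasone repression.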

[3] = read-out: Transactivation A549 Cells GRAMMER Emax (%)
[4] = Table 1, read-out: Transactivation A549 Cells GRAMMER IP
[5] = Table 1, U937 cells, read-out: Transrepression U937 Cells GITAR IP
[6] = 100 nM dexamethasone = 100% activity, read-out: maximal activity in the transrepression assay
[7] = Table 1, U937 cells, activity repressed by 100 nM dexamethasone = 100%, read-out: Transrepression U937 Cells GITAR Emax (%)
[8] = read-out: Transactiviation A549 Cells GRAMMER Emax (%)
[9] = Table 2, read-out: Transactiviation A549 Cells GRAMMER IP
[10] = Table 2, U937 cells, read-out: Transactiviation U937 Cells GITAR IP
[11] = Table 2, U937 cells, activity repressed by 100 nM dexamethasone = 100%, read-out: Transactiviation U937 Cells GITAR Emax (%)

SMILES | Emax (human GR [1]; [3]) [%] | EC50 (human GR [1]; [4]) [nM] | EC50 (human GR [2]; [5]) [nM] | GITAR > GRAMM % SEP (human GR [2]; Table 1) [%] | Emax (human GR [2]; [6]) [%] | Emax (human GR [2]; [7]) [%] | Emax (human GR [1]; [8]) [%] | EC50 (human GR [1]; [9]) [nM] | EC50 (human GR [2]; [10]) [nM] | GITAR > GRAMM % SEP (human GR [2]; Table 2) [%] | Emax (human GR [2]; [11]) [%]
CC(O)(C(N)=O)c1ccccc1CC[C@]1(O)CCC2=Cc3c(cnn3-c3ccc(F)cc3)C[C@@]21C (single isomer, unassigned) [Example 150] | 38 | 264 | 210 | 29 | 5 to 100 | 67 |  |  |  |  | 
CC(C(N)=O)c1ccccc1CC[C@]1(O)CCC2=Cc3c(cnn3-c3ccc(F)cc3)C[C@@]21C (single isomer, unassigned) [Example 196] | 20 | 253 | 287 | 20 | 5 to 100 | 40 |  |  |  |  | 
C[C@]12Cc3cnn(-c4ccc(F)cc4)c3C=C1CC[C@@]2(O)CCc1ccccc1C(F)C(N)=O (single isomer, unassigned) [Example 198] | 29 | 187 | 197 | 23 | 5 to 100 | 52 |  |  |  |  | 
C[C@]12Cc3cnn(-c4ccc(F)cc4)c3C=C1CC[C@@]2(O)CCc1ccccc1 [Example 2 WO 2004/075840 A2, reference compound] |  |  |  |  |  |  | 73 | 230 | 204 | 5 | 78
CCNC(=O)c1ccccc1CC[C@]1(O)CCC2=Cc3c(cnn3-c3ccc(F)cc3)C[C@@]21C [Example 2, N-ethyl-2-{2-[(4αS,5R)-1-(4-fluorophenyl)-5-hydroxy-4α-methyl-1,4,4α,5,6,7-hexahydrocyclopenta[f]indazol-5-yl]ethyl}benzamide] | 51 | 39 | 88 | 14 | 5 to 100 | 65 |  |  |  |  | 
C[C@]12Cc3cnn(-c4ccc(F)cc4)c3C=C1CC[C@@]2(O)CCc1ccccc1CNS(=O)(=O)C1CC1 [Example 5, N-(2-{2-[(4αS,5R)-1-(4-fluorophenyl)-5-hydroxy-4α-methyl-1,4,4α,5,6,7-hexahydrocyclopenta[f]indazol-5-yl]ethyl}benzyl)cyclopropanesulfonamide] | 40 | 138 | 179 |  | 5 to 100 | 64 |  |  |  |  | 
C[C@]12Cc3cnn(-c4ccc(F)cc4)c3C=C1CC[C@@]2(O)CCc1ccccc1N1CCC1=O [Example 11, 1-(2-{2-[(4αS,5R)-1-(4-fluorophenyl)-5-hydroxy-4α-methyl-1,4,4α,5,6,7-hexahydrocyclopenta[f]indazol-5-yl]ethyl}phenyl)azetidin-2-one] | 39 | 290 | 208 | 17 | 5 to 100 | 57 |  |  |  |  | 
CC(=O)Nc1ccccc1CC[C@]1(O)CCC2=Cc3c(cnn3-c3ccc(F)cc3)C[C@@]21C [Example 14, N-(2-{2-[(4αS,5R)-1-(4-fluorophenyl)-5-hydroxy-4α-methyl-1,4,4α,5,6,7-hexahydrocyclopenta[f]indazol-5-yl]ethyl}phenyl)acetamide] | 55 | 175 | 193 | 23 | 5 to 100 | 79 |  |  |  |  | 
C[C@]12Cc3cnn(-c4ccc(F)cc4)c3C=C1CC[C@@]2(O)CCc1ccccc1NS(=O)(=O)C1CC1 [Example 15, N-(2-{2-[(4αS,5R)-1-(4-fluorophenyl)-5-hydroxy-4α-methyl-1,4,4α,5,6,7-hexahydrocyclopenta[f]indazol-5-yl]ethyl}phenyl)cyclopropanesulfonamide] | 43 | 236 | 242 | 36 | 5 to 100 | 79 |  |  |  |  | 
C[C@]12Cc3cnn(-c4ccc(F)cc4)c3C=C1CC[C@@]2(O)CCc1ccccc1S(C)(=O)=O [Example 19, (4αS,5R)-1-(4-fluorophenyl)-4α-methyl-5-{2-[2-(methylsulfonyl)phenyl]ethyl}-1,4,4α,5,6,7-hexahydrocyclopenta[f]indazol-5-ol] | 46 | 127 | 187 | 33 | 5 to 100 | 79 |  |  |  |  | 
C[C@]12Cc3cnn(-c4ccc(F)cc4)c3C=C1CCC[C@@H]2[C@@H](O)Cc1ccccc1 [Example 22 WO 03/086294 A2, reference compound] |  |  |  |  |  |  | 85 | 109 | 327 | −14 | 71
CNC(=O)Cc1ccccc1CC[C@]1(O)CCC2=Cc3c(cnn3-c3ccc(F)cc3)C[C@@]21C [Example 23, 2-(2-{2-[(4αS,5R)-1-(4-fluorophenyl)-5-hydroxy-4α-methyl-1,4,4α,5,6,7-hexahydrocyclopenta[f]indazol-5-yl]ethyl}phenyl)-N-methylacetamide] | 36 | 268 | 263 | 37 | 5 to 100 | 73 |  |  |  |  | 
COC(=O)C1(NC(=O)c2ccccc2CC[C@]2(O)CCC3=Cc4c(cnn4-c4ccc(F)cc4)C[C@@]32C)CC1 [Example 26, methyl 1-[(2-{2-[(4αS,5R)-1-(4-fluorophenyl)-5-hydroxy-4α-methyl-1,4,4α,5,6,7-hexahydrocyclopenta[f]indazol-5-yl]ethyl}benzoyl)amino]cyclopropanecarboxylate] | 24 | 39 | 123 | 15 | 5 to 100 | 39 |  |  |  |  | 
CC1(NC(=O)c2ccccc2CC[C@]2(O)CCC3=Cc4c(cnn4-c4ccc(F)cc4)C[C@@]32C)CC1 [Example 28, 2-{2-[(4αS,5R)-1-(4-fluorophenyl)-5-hydroxy-4α-methyl-1,4,4α,5,6,7-hexahydrocyclopenta[f]indazol-5-yl]ethyl}-N-(1-methylcyclopropyl)benzamide] | 28 | 48 | 65 | 43 | 5 to 100 | 72 |  |  |  |  | 
